Values of other authors as cited in patent publication US12716021B2, “Aqueous modified acid compositions and methods of using the same” (FLUID ENERGY GROUP LTD., priority 2019, dated 2026).

Conditions: death in 2-3 minutes

Cl [hydrogen chloride gas, hydrogen chloride]
levels at which death can occur: 1300-2000 ppm
